Source: patent US20130116219A1, “ANTIMICROBIAL CARBOLINE COMPOUNDS” (ALCON RESEARCH, LTD., priority 2011, published 2013)

Each compound was assayed on Ad5 (assay: Ad5 genome replication assay (cell-based QPCR) in A549 cells). Conditions: Human adenovirus sp., A549, 72 h, read-out: Ad5 qPCR EC50 (μM).
Method: Compounds of the present invention were tested for potency against Ad5 in an Ad5 genome replication assay, a cell-based QPCR assay of Ad5 genome replication in A549 cells, a human lung carcinoma cell line. Serotype of human Ad5, used in this replication assay can also replicate in a NZW rabbit model of adenoviral ocular keratitis.
EC50 values (μM) for inhibition of adenoviral replication were determined by QPCR. Briefly, 10,000 cultured A549 cells were inoculated with 25,000 pfu/well for 3 hrs in 2% FBS F12-K A549 culture media. Following inoculation, A549 cells were treated with log unit dilutions of compound of Formula I (˜10 μM thru˜10 pM) in 10% FBS F12-K culture media with 0.3% DMSO for an additional 3 days. Cell viability was assessed with Alamar Blue (10 μl/well for 2 hrs; fluorescence Ex353; Em595 nm). Plates were washed 3 times with 125 μl PBS, cell lysates were prepared for QPCR analysis using Cells to SNP kit (Life Technologies). Ad5 genome levels per cell were determined with RNaseP and Ad5 hexon Taqman Assays (Life Technologies). EC50, the concentration that inhibited Ad5 genome replication formation by 50%, was estimated from plots of Ad5 genomes/cell vs. compound concentration.
For `CC(C)C[C@H]1c2[nH]c3ccc(Cl)cc3c2CCN1C(=O)CNC1CCC(F)(F)CC1` [Compound 94, (S)-1-(6-chloro-1-isobutyl-3,4-dihydro-1H-pyrido[3,4-b]indol-2(9H)-yl)-2-((4,4-difluorocyclohexyl)amino)ethanone], the EC50 was less than 0.1 µM. With `CC(C)CC1c2[nH]c3ccc(Cl)cc3c2CCN1c1nc(CN2CCC(F)(F)CC2)co1` (stereo not shown) [Compound 56] the EC50 was 0.1 to 1 µM. With `CC(C)CC1c2[nH]c3ccc(Cl)cc3c2CCN1C(=O)C(C)CN1CCC(F)(F)CC1` (stereo not shown) [Compound 37] the EC50 was 0.1 to 1 µM. `CC(C)CC1c2[nH]c3ccc(Cl)cc3c2CCN1C(=O)CN1CC[C@H](F)C1` (stereo partly shown) [Compound 49] was tested, and the EC50 was greater than 1 µM. `CC(C)CC1c2[nH]c3ccc(Cl)cc3c2CCN1C(=O)C1CN(c2ncccn2)C1` (stereo not shown) [Compound 81] gave an EC50 of 0.1 to 1 µM. With `O=C(CCN1CCC(C(F)F)CC1)N1CCc2c([nH]c3ccc(Cl)cc23)C1CC1CCCC1` (stereo not shown) [Compound 31] the EC50 was 0.1 to 1 µM. `CC(C)C[C@H]1c2[nH]c3ccc(Cl)cc3c2CCN1C(=O)CCN1CCC(C(F)F)CC1` [Compound 29, (S)-1-(6-chloro-1-isobutyl-3,4-dihydro-1H-pyrido[3,4-b]indol-2(9H)-yl)-3-(4-(difluoromethyl)piperidin-1-yl)propan-1-one] gave an EC50 of 0.1 to 1 µM. Compound `O=C(CCN1CCC(F)(F)CC1)N1CCc2c([nH]c3ccc(Cl)cc23)C1c1ccc(F)cc1` (stereo not shown) [Compound 5] has an EC50 greater than 1 µM. In the case of `CC(C)CC1c2[nH]c3ccc(Cl)cc3c2CCN1C(=O)CNC1CCCCC1` (stereo not shown) [Compound 40], the EC50 is reported as greater than 1 µM. `CC(C)CC1c2[nH]c3ccc(Cl)cc3c2CCN1C(=O)c1ccccn1` (stereo not shown) [Compound 52] gave an EC50 of 0.1 to 1 µM. `O=C(CCN1CCC(F)(F)CC1)N1CCc2c([nH]c3ccc(Cl)cc23)C1CC1CCCC1` (stereo not shown) [Compound 9] showed an EC50 of 0.1 to 1 µM. `CC(C)CC1c2[nH]c3ccc(Cl)cc3c2CCN1C(=O)Cc1cccnc1` (stereo not shown) [Compound 60] showed an EC50 greater than 1 µM. `CC(C)CC1c2[nH]c3ccc(Cl)cc3c2CCN1C(=O)COC1CCN(C2CC2)CC1` (stereo not shown) [Compound 69] gave an EC50 greater than 1 µM. `CC(C)CC1c2[nH]c3ccc(Cl)cc3c2CCN1C(=O)OCCN1CCC(F)(F)CC1` (stereo not shown) [Compound 14] showed an EC50 of 0.1 to 1 µM. In the case of `CC(C)C[C@H]1c2[nH]c3ccc(Cl)cc3c2CCN1C(=O)C1CCN(CC(F)F)CC1` [Compound 83], the EC50 is reported as 0.1 to 1 µM. Work on `CC(C)CC1c2[nH]c3ccc(Cl)cc3c2CCN1C(=O)OCCN1CC(F)(F)C1` (stereo not shown) [Compound 26] yielded an EC50 of 0.1 to 1 µM. Compound `CC(C)CC1c2[nH]c3ccc(Cl)cc3c2CCN1C(=O)OCCN1CCC(C(F)(F)F)C1` (stereo not shown) [Compound 17] has an EC50 of 0.1 to 1 µM. With `CC(C)CC1c2[nH]c3ccc(Cl)cc3c2CCN1C(=O)C1CN(CC(C)C)C1` (stereo not shown) [Compound 39] the EC50 was greater than 1 µM. `CC(C)CC1c2[nH]c3ccc(Cl)cc3c2CCN1C(=O)c1ccco1` (stereo not shown) [Compound 66] was tested, and the EC50 was greater than 1 µM. In the case of `O=C(CCN1CCC(F)CC1)N1CCc2c([nH]c3ccc(Cl)cc23)C1CC1CCCC1` (stereo not shown) [Compound 27], the EC50 is reported as 0.1 to 1 µM. `CC(C)CC1c2[nH]c3ccc(Cl)cc3c2CCN1C(=O)c1ccncc1` (stereo not shown) [Compound 65] was tested, and the EC50 was 0.1 to 1 µM. In the case of `CC(C)C[C@H]1c2[nH]c3ccc(Br)cc3c2CCN1C(=O)CCN1CC[C@H](F)C1` [Compound 105], the EC50 is reported as 0.1 to 1 µM. In the case of `CC(C)(C)CC1c2[nH]c3ccc(Cl)cc3c2CCN1C(=O)CCN1CCC(F)CC1` (stereo not shown) [Compound 30], the EC50 is reported as greater than 1 µM. For `CC(C)CC1c2[nH]c3ccc(Cl)cc3c2CCN1C(=O)COC1CCN(CC(F)F)CC1` (stereo not shown) [Compound 53], the EC50 was greater than 1 µM. In the case of `CC(C)CC1c2[nH]c3ccc(Cl)cc3c2CCN1C(=O)CNCCN1CCC(F)(F)CC1` (stereo not shown) [Compound 86], the EC50 is reported as greater than 1 µM. `CC(C)(C)CC1c2[nH]c3ccc(Cl)cc3c2CCN1C(=O)CCN1CCC(F)(F)CC1` (stereo not shown) [Compound 10] gave an EC50 of 0.1 to 1 µM. `CC(C)C[C@H]1c2[nH]c3ccc(Cl)cc3c2CCN1C(=O)CCN1CCC(C(F)(F)F)CC1` [Compound 20, (S)-1-(6-chloro-1-isobutyl-3,4-dihydro-1H-pyrido[3,4-b]indol-2(9H)-yl)-3-(4-(trifluoromethyl)piperidin-1-yl)propan-1-one] gave an EC50 of 0.1 to 1 µM. For `CC(C)CC1c2[nH]c3ccc(Cl)cc3c2CCN1C(=O)CN1CC(F)(F)C1` (stereo not shown) [Compound 85, 1-(6-chloro-1-isobutyl-3,4-dihydro-1H-pyrido[3,4-b]indol-2(9H)-yl)-2-(3,3-difluoroazetidin-1-yl)ethanone], the EC50 was less than 0.1 µM. For `CC(C)CC1c2[nH]c3ccc(Cl)cc3c2CCN1C1CC1` (stereo not shown) [Compound 95], the EC50 was less than 0.1 µM. `CC(C)CC1c2[nH]c3ccc(Cl)cc3c2CCN1C(=O)CNCc1ccno1` (stereo not shown) [Compound 90] was tested, and the EC50 was greater than 1 µM. `CC(C)CC1c2[nH]c3ccc(Cl)cc3c2CCN1C(=O)[C@@H](N)Cc1ccccc1` (stereo partly shown) [Compound 76] was tested, and the EC50 was greater than 1 µM. `CC(C)CC1c2[nH]c3ccc(Cl)cc3c2CCN1C(=O)CC1CCN(C2CC2)CC1` (stereo not shown) [Compound 75] showed an EC50 of 0.1 to 1 µM. With `CC(C)CC1c2[nH]c3ccc(Cl)cc3c2CCN1C(=O)c1ccccc1` (stereo not shown) [Compound 62] the EC50 was 0.1 to 1 µM. Compound `CC(C)CC1c2[nH]c3ccc(Cl)cc3c2CCN1CC(=O)NC1CCCCC1` (stereo not shown) [Compound 79] has an EC50 of 0.1 to 1 µM. Work on `CC(C)CC1c2[nH]c3ccc(Cl)cc3c2CCN1C(=O)CCN1CCOCC1` (stereo not shown) [Compound 2] yielded an EC50 greater than 1 µM. In the case of `CC(C)CC1c2[nH]c3ccc(Cl)cc3c2CCN1C(=O)CCN1CCCCC12CC2` (stereo not shown) [Compound 44], the EC50 is reported as 0.1 to 1 µM. With `CC(C)C[C@H]1c2[nH]c3ccc(Cl)cc3c2CCN1C(=O)CC1CCN(CC(F)F)CC1` [Compound 100] the EC50 was less than 0.1 µM. `CC(C)CC1c2[nH]c3ccc(Cl)cc3c2CCN1C(=O)C1(F)CNC1` (stereo not shown) [Compound 102] was tested, and the EC50 was 0.1 to 1 µM. In the case of `CC(C)CC1c2[nH]c3ccc(Cl)cc3c2CCN1C(=O)OCCN1CCC(F)CC1` (stereo not shown) [Compound 23], the EC50 is reported as greater than 1 µM. `CC(C)C[C@H]1c2[nH]c3ccc(Cl)cc3c2CCN1CCN1CCC(F)(F)CC1` [Compound 110, (S)-6-chloro-2-(2-(4,4-difluoropiperidin-1-yl)ethyl)-1-isobutyl-2,3,4,9-tetrahydro-1H-pyrido[3,4-b]indole] showed an EC50 of 0.1 to 1 µM. Work on `CC(C)CC1c2[nH]c3ccc(Cl)cc3c2CCN1C(=O)CNc1ccccc1` (stereo not shown) [Compound 70] yielded an EC50 of less than 0.1 µM. For `CC(C)C[C@H]1c2[nH]c3ccc(Cl)cc3c2CCN1C(=O)CCNC1CCC(F)(F)CC1` [Compound 34], the EC50 was greater than 1 µM. In the case of `CC(C)CC1c2[nH]c3ccc(Cl)cc3c2CCN1C(=O)COc1ccccc1` (stereo not shown) [Compound 71], the EC50 is reported as 0.1 to 1 µM. `CC(C)CC1c2[nH]c3ccc(Cl)cc3c2CCN1C(=O)Cc1ccncc1` (stereo not shown) [Compound 61] showed an EC50 greater than 1 µM. `CC(C)CC1c2[nH]c3ccc(Cl)cc3c2CCN1CCN1CC[C@H](F)C1` (stereo partly shown) [Compound 101] was tested, and the EC50 was greater than 1 µM. `CC(C)CC1c2[nH]c3ccc(Cl)cc3c2CCN1C(=O)CCCN1CCC(F)(F)CC1` (stereo not shown) [Compound 12] gave an EC50 greater than 1 µM. `CC(C)CC1c2[nH]c3ccc(Cl)cc3c2CCN1C(=O)C1CCN(c2ncccn2)CC1` (stereo not shown) [Compound 67] showed an EC50 of 0.1 to 1 µM. `CC(C)CC1c2[nH]c3ccc(Cl)cc3c2CCN1C(=O)C1CCN(CCC(F)(F)F)CC1` (stereo not shown) [Compound 50] gave an EC50 of 0.1 to 1 µM. `COc1ccc2[nH]c3c(c2c1)CCN(C(=O)CCN1CCC(F)(F)CC1)C3CC(C)C` (stereo not shown) [Compound 51] showed an EC50 of 0.1 to 1 µM. Compound `CC(C)CC1c2[nH]c3ccc(Cl)cc3c2CCN1C(=O)C1CN(CC2CC2(F)F)C1` (stereo not shown) [Compound 107] has an EC50 greater than 1 µM. `CCCCN1CC(F)(C(=O)N2CCc3c([nH]c4ccc(Cl)cc34)C2CC(C)C)C1` (stereo not shown) [Compound 106] was tested, and the EC50 was less than 0.1 µM. `CC(C)C[C@H]1c2[nH]c3ccc(Br)cc3c2CCN1C(=O)CNC1CC1` [Compound 98, (S)-1-(6-bromo-1-isobutyl-3,4-dihydro-1H-pyrido[3,4-b]indol-2(9H)-yl)-2-(cyclopropylamino)ethanone] showed an EC50 of less than 0.1 µM. In the case of `CC(C)CC1c2[nH]c3ccc(Cl)cc3c2CCN1C(=O)c1cccnc1` (stereo not shown) [Compound 64], the EC50 is reported as 0.1 to 1 µM. Work on `CC(C)CC1c2[nH]c3ccc(Cl)cc3c2CCN1c1nc(CN2CCC(F)CC2)co1` (stereo not shown) [Compound 57] yielded an EC50 of 0.1 to 1 µM. `CC(C)CC1c2[nH]c3ccc(Br)cc3c2CCN1C(=O)CCN1CCC(F)(F)CC1` (stereo not shown) [Compound 45] gave an EC50 of less than 0.1 µM. In the case of `CC(C)C[C@H]1c2[nH]c3ccc(Cl)cc3c2CCN1C(=O)OCCN1CC[C@H](F)C1` [Compound 38], the EC50 is reported as 0.1 to 1 µM. `CC(C)CC1c2[nH]c3ccc(Cl)cc3c2CCN1Cc1ccccn1` (stereo not shown) [Compound 87] showed an EC50 of 0.1 to 1 µM. `CC(C)CC1c2[nH]c3ccc(Cl)cc3c2CCN1C(=O)Cc1ccccc1` (stereo not shown) [Compound 63] was tested, and the EC50 was 0.1 to 1 µM. Compound `CC(C)CC1c2[nH]c3ccc(Cl)cc3c2CCN1S(=O)(=O)CCN1CCC(F)(F)CC1` (stereo not shown) [Compound 36] has an EC50 greater than 1 µM. With `CC(C)CC1c2[nH]c3ccc(Cl)cc3c2CCN1C(=O)CCN1CCC(CF)CC1` (stereo not shown) [Compound 16] the EC50 was 0.1 to 1 µM. Work on `O=C(CCC1CCCCC1)N1CCc2c([nH]c3ccc(Cl)cc23)C1CN1CCCCC1` (stereo not shown) [Compound 80] yielded an EC50 greater than 1 µM. `CC(C)CC1c2[nH]c3ccc(Cl)cc3c2CCN1C(=O)CN1CCOCC1` (stereo not shown) [Compound 55] showed an EC50 greater than 1 µM. `CC(C)CC1c2[nH]c3ccc(Cl)cc3c2CCN1C(=O)CCN1CCC(F)(F)C1` (stereo not shown) [Compound 11] gave an EC50 of 0.1 to 1 µM. `Cc1nnc(CCC(=O)N2CCc3c([nH]c4ccc(Cl)cc34)C2CC(C)C)o1` (stereo not shown) [Compound 82] showed an EC50 of 0.1 to 1 µM. In the case of `CC(C)C[C@H]1c2[nH]c3ccc(Cl)cc3c2CCN1C(=O)CNC1CC(F)(F)C1` [Compound 104, (S)-1-(6-chloro-1-isobutyl-3,4-dihydro-1H-pyrido[3,4-b]indol-2(9H)-yl)-2-((3,3-difluorocyclobutyl)amino)ethanone], the EC50 is reported as less than 0.1 µM. For `CC(C)CC1c2[nH]c3ccc(Cl)cc3c2CCN1C(=O)CCN1CCCC(F)(F)C1` (stereo not shown) [Compound 13], the EC50 was 0.1 to 1 µM. `CC(C)CC1c2[nH]c3ccc(Cl)cc3c2CCN1C(=O)CCc1ccc(O)cc1` (stereo not shown) [Compound 72] showed an EC50 greater than 1 µM.
